Measurements as given in patent US20020052377A1, “Method for treating angina” (priority 2000, published 2002).

Tested on: patients with chronic angina, with or without history of heart failure
Test: MARISA exercise duration, patients with or without history of heart failure (HF)
Assay type: in vivo, human
Experimental: This Example evaluates the effectiveness of ranolazine (Ran) in human patients with chronic angina and a history of heart failure. The […] (Monotherapy Assessment of Ranolazine In Stable Angina) study randomized patients to Ran (500 mg, 1000 mg and 1500 mg bid) and placebo in a double-blind, 4 period, crossover design study. […] All patients performed a modified Bruce exercise test at the time of trough (morning) and peak (afternoon) drug levels on each treatment.

## COc1ccccc1OCC(O)CN1CCN(CC(=O)Nc2c(C)cccc2C)CC1 (racemic) [Ranolazine, (±)-N-(2,6-dimethylphenyl)-4-[2-hydroxy-3-(2-methoxyphenoxy)propyl]-1-piperazine-acetamide]
HF n=29, 500 mg bid, peak
  LS mean ED: 518 s
HF n=29, 500 mg bid, trough
  LS mean ED: 512 s
HF n=29, 1000 mg bid, peak
  LS mean ED: 520 s
HF n=29, 1000 mg bid, trough
  LS mean ED: 514 s
HF n=29, 1500 mg bid, peak
  LS mean ED: 545 s
HF n=29, 1500 mg bid, trough
  LS mean ED: 524 s
No HF n=146, 500 mg bid, peak
  LS mean ED: 538 s
No HF n=146, 500 mg bid, trough
  LS mean ED: 539 s
No HF n=146, 1000 mg bid, peak
  LS mean ED: 563 s
No HF n=146, 1000 mg bid, trough
  LS mean ED: 551 s
No HF n=146, 1500 mg bid, peak
  LS mean ED: 564 s
No HF n=146, 1500 mg bid, trough
  LS mean ED: 563 s
